Source: article PMC9298352, “Design, Synthesis and Structural Analysis of Glucocerebrosidase Imaging Agents” (Chemistry (Weinheim an Der Bergstrasse, Germany), 2021)

Legend:
rhGBA = biological target: T1, rhGBA (Homo sapiens, UniProt P04062); assay: pH dependent activity-based labelling of rhGBA by ABP 6 and ABP 9; assay type: biochemical; conditions: rhGBA 200 nM, ABP 150 nM, pH 4.5, 5.2 or 7.4, 37 °C, 30 mins
T1 construct: made in house; host or cells: insect-baculovirus expression vector system (BEVS)
T1 sequence (P04062 40-536): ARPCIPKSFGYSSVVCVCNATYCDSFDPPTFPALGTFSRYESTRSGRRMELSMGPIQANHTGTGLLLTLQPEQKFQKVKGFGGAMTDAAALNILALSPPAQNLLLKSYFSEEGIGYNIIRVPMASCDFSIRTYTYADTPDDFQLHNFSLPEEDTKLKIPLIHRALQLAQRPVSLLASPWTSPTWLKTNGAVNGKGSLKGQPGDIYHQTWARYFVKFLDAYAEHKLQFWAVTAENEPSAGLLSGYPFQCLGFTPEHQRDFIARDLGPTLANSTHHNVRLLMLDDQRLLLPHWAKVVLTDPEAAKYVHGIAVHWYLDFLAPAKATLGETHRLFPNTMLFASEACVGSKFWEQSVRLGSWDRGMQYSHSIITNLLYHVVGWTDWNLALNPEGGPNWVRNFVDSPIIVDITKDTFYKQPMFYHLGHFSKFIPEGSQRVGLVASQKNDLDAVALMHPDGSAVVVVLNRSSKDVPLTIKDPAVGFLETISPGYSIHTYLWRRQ
Protocol: Cy5 tetrazine 20 (2.83 mg, 4.3 µmol) was added to a solution of norbornene 19 (0.94 mg, 2.38 µmol) in MeOH (4 mL). After stirring overnight at rt, the reaction mixture was concentrated in vacuo and purified by HPLC under neutral conditions (A: 50 mM NH4HCO3 in H2O; B: MeCN; 49% → 52%, A in B) yielding ABP 7 (2.12 mg, 2.07 µmol, 87%) as a mixture of regioisomers.
Biochemical Methods: General Experimental Details
Recombinant human GBA (rhGBA, imiglucerase, Cerezyme®) and GAA (rhGAA, alglucosidase alfa, Myozyme) were obtained from Sanofi Genzyme (Cambridge, MA, USA). HEK293T (CRL-3216) cell lines were purchased from ATCC (Manassas, VA, USA). […] All the tissue lysates were prepared in potassium phosphate lysis buffer (25 mM in pH 6.5, supplemented with 0.1% (v/v) Triton X-100 and protease inhibitor 1x cocktail (Roche)) via homogenization with silent crusher S equipped with Typ 7 F/S head (30 rpm x 1000, 3 × 7 sec) on ice and lysate concentration was determined with Bicinchoninic acid (BCA) Protein Assay Kit (PierceTM)[7]. […]
ABP 9 were diluted with DMSO into various concentrations (200x of the final concentration), and 5 µL of ABP at different concentrations were added into 1 mL fresh medium containing cells and incubated at 37°C for 24 h. […] The protein concentrations were determined using BCA kit. […]

[1] = biological target: T2, recombinant human GAA (rhGAA, Myozyme) (Homo sapiens, UniProt P10253); assay: In vitro apparent IC50, fluorogenic substrate assay on rhGAA; assay type: biochemical
T2 construct: purchased Sanofi Genzyme (Cambridge, MA, USA)
Protocol: All assays were performed in duplicate sets, each with 3 technical replicates at each inhibitor concentration. DMSO concentration was kept at 0.5 %–1 % (v/v) in all assays during incubation with compounds. In vitro apparent IC50 values were calculated by fitting data with [inhibitor] vs. response‐various slope (four parameters) function using Graphpad Prism 7.0 software. Average values and standard deviations were calculated from the two sets.

Structure (SMILES): CCCCCCCCN1[C@@H]2[C@H](Cn3cc(CNC(=O)CCCCC[N+]4=C(/C=C/C=C/C=C5/N(C)c6ccccc6C5(C)C)C(C)(C)c5ccccc54)nn3)[C@@H](O)[C@H](O)[C@@H](O)[C@@H]21 (some centres unmarked) [ABP 6]
- pH dependence of rhGBA labelling (rhGBA): greater labelling at acidin pH (4.5 and 5.2)
- IC50 [1]: > 100 µM
